Test results as given in patent publication US7232904B2, “Crystal of arylethenesulfonamide derivative and preparation process thereof” (Astellas Pharma Inc., priority 2001, dated 2007).

Assays:
[1] = hygroscopicity of crystals (FIGS. 10 to 12); format: physicochemical; details: for moisture absorbed / moisture absorbed, corresponding moles of water: extent of moisture absorption with increase of humidity; for humidity above which moisture is absorbed: humidity exceeded before moisture absorption
Description: Also, FIGS. 10 to 12 show the hygroscopicity of the three kinds of novel crystals of the potassium salt of Compound A of the invention.

[2] = preservation stability in a reagent bottle; format: physicochemical; details: normal temperature, atmospheric pressure
Description: Additionally, the α-type crystal, β-type crystal and γ-type crystal of the potassium salt of Compound A of the invention are morphologically pure. […] Moreover, since it is hardly electrified and is excellent in fluidity, it has advantages such that works are easy in adjusting solid formulations such as powders, granules, tablets, and capsules.

[3] = heat stability of crystals; format: physicochemical; details: high melting point
[4] = system: ET receptors, particularly an ETA receptor; details: competitively inhibits binding to ET receptors; cited from earlier work
[5] = listed as α-type crystal of the potassium salt of Compound A
[6] = listed as β-type crystal of the potassium salt of Compound A
[7] = listed as γ-type crystal of the potassium salt of Compound A

In the case of `COc1ccccc1Oc1c(NS(=O)(=O)/C=C/c2ccccc2)nc(-c2ncccn2)nc1OC.[K]` [α-type crystal], the moisture absorbed [1, 5] is reported as “about 6%”, the “moisture absorbed, corresponding moles of water” value (shortened to “moisture absorbed … of water”) [1, 5] is reported as 1.8 moles of water and the “humidity above which moisture is absorbed” value [1, 5] is reported as “exceeded 65%”. For the same compound, the “stable in the preservation state” value [2] was “over 2 years”.
For `COc1ccccc1Oc1c(NS(=O)(=O)/C=C/c2ccccc2)nc(-c2ncccn2)nc1OC.[K]` [β-type crystal], the “heat stability (in words)” value [3] was “excellent in heat stability”, the moisture absorbed [1, 6] was “about 4%” and the “moisture absorbed … of water” value [1, 6] was 1.2 moles of water. The “humidity above which moisture is absorbed” value [1, 6] was “exceeded 45%”.
In the case of `COc1ccccc1Oc1c(NS(=O)(=O)/C=C/c2ccccc2)nc(-c2ncccn2)nc1OC.[K]` [potassium salt of Compound A], the “affinity with ET receptors” value [4] is given as “high affinity”.
With `COc1ccccc1Oc1c(NS(=O)(=O)/C=C/c2ccccc2)nc(-c2ncccn2)nc1OC.[K]` [γ-type crystal] the “heat stability (in words)” value [3] was “excellent in heat stability”, the moisture absorbed [1, 7] was “about 1%” and the “moisture absorbed … of water” value [1, 7] was 0.3 moles of water.
